Data: article PMC4980083 (JCI insight, 2016)

Assays:
PC3 cells = test: PC3 proliferation/viability; assay type: cell-based, human; details: up to 10 times the IC50 required to reduce AR-dependent proliferation; 3 days
PRβ = molecular target: T1, PRβ (Homo sapiens, UniProt P06401); test: PR transcriptional activity, PRE luciferase reporter; assay type: cell-based; details: 2 μM; progesterone 10 nM
T1 sequence (P06401 1-933): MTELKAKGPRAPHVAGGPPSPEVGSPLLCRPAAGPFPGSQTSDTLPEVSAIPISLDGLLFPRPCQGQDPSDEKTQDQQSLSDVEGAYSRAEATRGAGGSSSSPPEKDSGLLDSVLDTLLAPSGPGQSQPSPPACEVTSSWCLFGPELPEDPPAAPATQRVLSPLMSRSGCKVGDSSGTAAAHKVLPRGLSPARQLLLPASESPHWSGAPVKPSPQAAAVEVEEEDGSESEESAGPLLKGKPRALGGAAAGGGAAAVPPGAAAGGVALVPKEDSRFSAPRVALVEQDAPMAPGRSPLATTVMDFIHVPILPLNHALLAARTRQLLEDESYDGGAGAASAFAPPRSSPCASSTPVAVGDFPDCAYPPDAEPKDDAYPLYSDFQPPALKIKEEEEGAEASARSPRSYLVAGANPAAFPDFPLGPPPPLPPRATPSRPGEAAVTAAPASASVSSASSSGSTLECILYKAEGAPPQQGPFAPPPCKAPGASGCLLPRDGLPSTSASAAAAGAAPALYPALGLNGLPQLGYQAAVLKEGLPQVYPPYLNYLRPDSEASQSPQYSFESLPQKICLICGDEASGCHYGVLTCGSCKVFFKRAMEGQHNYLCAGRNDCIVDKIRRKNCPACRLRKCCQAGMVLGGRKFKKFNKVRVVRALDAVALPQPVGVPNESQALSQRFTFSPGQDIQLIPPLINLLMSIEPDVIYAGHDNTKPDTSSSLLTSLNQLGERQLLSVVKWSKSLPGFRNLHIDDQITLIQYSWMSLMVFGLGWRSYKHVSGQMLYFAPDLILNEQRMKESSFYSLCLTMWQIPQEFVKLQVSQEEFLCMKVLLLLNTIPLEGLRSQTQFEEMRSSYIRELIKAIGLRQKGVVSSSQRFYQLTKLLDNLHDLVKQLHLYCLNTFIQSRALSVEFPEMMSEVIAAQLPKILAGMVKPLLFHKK

PR LBD = molecular target: T2, PR LBD (Homo sapiens, UniProt P06401); test: Fluorescence polarization competition binding, PR LBD
T2 sequence (P06401 679-913 limits assumed): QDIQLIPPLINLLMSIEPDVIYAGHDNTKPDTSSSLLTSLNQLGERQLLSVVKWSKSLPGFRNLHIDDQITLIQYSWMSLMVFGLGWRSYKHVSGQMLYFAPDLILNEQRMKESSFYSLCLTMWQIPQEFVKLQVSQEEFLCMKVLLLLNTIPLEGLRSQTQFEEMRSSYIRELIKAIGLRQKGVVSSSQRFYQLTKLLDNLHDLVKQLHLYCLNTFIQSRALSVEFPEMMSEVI

LNCaP95 cells = test: Cell cycle analysis of LNCaP95 cells; assay type: cell-based, human; details: I-EPI-002 5 μM, EPI-002 25 μM, 48 hours
full-length AR and V7 = test: Probasin luciferase activity in LNCaP cells, full-length AR and V7; details: I-EPI-002 2 μM, enzalutamide 5 μM; presence or absence of androgen
[1] = molecular target: T3, endogenous full-length AR (Homo sapiens, UniProt P10275, T878A); test: Probasin luciferase activity in LNCaP cells, endogenous full-length AR; details: I-EPI-002 2 μM, enzalutamide 5 μM; R1881 1 nM 24 hours
T3 sequence (P10275 1-920 T878A): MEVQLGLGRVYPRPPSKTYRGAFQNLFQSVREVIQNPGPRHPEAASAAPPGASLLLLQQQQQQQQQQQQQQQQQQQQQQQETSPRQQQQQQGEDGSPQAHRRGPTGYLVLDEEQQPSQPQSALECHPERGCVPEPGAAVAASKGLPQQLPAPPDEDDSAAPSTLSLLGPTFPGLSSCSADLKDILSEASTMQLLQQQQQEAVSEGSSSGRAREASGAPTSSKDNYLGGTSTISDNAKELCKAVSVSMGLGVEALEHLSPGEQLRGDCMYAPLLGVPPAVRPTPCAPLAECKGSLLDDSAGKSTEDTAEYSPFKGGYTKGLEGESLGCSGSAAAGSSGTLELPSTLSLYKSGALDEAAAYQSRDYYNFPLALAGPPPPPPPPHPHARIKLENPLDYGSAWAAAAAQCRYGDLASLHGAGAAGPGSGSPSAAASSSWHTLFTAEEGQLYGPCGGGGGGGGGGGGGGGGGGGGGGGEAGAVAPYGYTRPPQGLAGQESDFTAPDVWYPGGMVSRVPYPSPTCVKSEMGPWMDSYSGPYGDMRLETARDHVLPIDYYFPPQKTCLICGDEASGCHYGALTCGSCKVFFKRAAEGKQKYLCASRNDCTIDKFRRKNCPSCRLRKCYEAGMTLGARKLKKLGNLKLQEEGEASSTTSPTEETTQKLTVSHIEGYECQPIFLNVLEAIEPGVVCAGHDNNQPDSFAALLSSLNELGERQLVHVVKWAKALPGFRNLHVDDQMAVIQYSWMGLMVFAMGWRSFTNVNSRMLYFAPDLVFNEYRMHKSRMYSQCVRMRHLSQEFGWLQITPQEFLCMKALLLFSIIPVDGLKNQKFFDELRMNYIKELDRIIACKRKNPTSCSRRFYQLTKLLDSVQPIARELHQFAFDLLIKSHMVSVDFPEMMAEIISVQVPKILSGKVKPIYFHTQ

15-IodoEPI002 [I-EPI-002] was tested. Which “effect on proliferation or viability of PC3 cells” value (PC3 cells) did it give?
Its value is “no effect”.

And the “inhibition of PR transcriptional activity” value (PRβ)?
The value was “did not inhibit”.

What about the “competition for ligand binding to PR LBD” value (PR LBD) of the same substance?
The value was “did not prevent ligand-binding”.

What about the “decrease of S phase cells” value (LNCaP95 cells) of the same substance?
The value was at least 2 fold.

And the “inhibition of probasin luciferase activity, full-length AR with V7” value (full-length AR and V7)?
The value was “showed good inhibition”.

And the “inhibition of probasin luciferase activity, full-length AR” value [1]?
The value was “showed good inhibition”.
